Assays:
Format in all cases: in vivo
[1] = tested on: Echinochloa oryzacola Vasing.; test: Test Example 1: herbicidal activity, application before weed generation in submerged conditions; conditions: Application herbicide amount 320 g/ha; Seventeenth Table
How it was run: (§1)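 Water-diluted emulsion formulation is applied onto flood water (4 cm deep) covering alluvial soil on the day weed seeds are sown, after transplanting 2.5 leaf stage rice. Rates are expressed per hectare. Injury or control is graded 0–5 three weeks later.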

Monochoria vaginalis = test: as above; conditions: Application herbicide amount 320 g/ha; Seventeenth Table
How it was run: as §1

Scirpus juncoides = test: as above; conditions: Application herbicide amount 320 g/ha; Seventeenth Table
How it was run: as §1

[2] = tested on: transplanted Oryza sativa; test: Test Example 1: effect on crop, application before weed generation in submerged conditions; conditions: Application herbicide amount 320 g/ha; Seventeenth Table
How it was run: as §1

Abutilon theophrasti = test: Test Example 4: herbicidal effect by application to foliage (diluvial soil, plastic box)
How it was run: (§2)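 Greenhouse plants (25° C. to 30° C., 14 d, diluvial soil) receive a foliar spray of water-diluted emulsifiable formulation at defined g/ha. Grading after 3 weeks uses a six-step herbicidal-ratio scale, with 4 covering 70% to <90% and 1 covering 5% to <20%.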

Alopecurus myosuroides = test: as above; conditions: for J: Application herbicide amount 320 g/ha
How it was run: as §2

Apera spica-venti. = test: as above; conditions: for L: Application herbicide amount 320 g/ha
How it was run: as §2

Avena fatua = test: as above
How it was run: as §2

Chenopodium album = test: as above; conditions: for O: Application herbicide amount 320 g/ha
How it was run: as §2

Digitaria ciliaris = test: as above; conditions: for F: Application herbicide amount 320 g/ha
How it was run: as §2

[3] = tested on: Echinochloa crus-galli var. crus-galli; test: as above; conditions: for H: Application herbicide amount 320 g/ha
How it was run: as §2

Galium spurium = test: as above; conditions: for Q: Application herbicide amount 320 g/ha
How it was run: as §2

Lolium multiflorum Lam. = test: as above; conditions: for K: Application herbicide amount 320 g/ha
How it was run: as §2

Setaria viridis = test: as above; conditions: for G: Application herbicide amount 320 g/ha
How it was run: as §2

Veronica persica = test: as above; conditions: for R: Application herbicide amount 320 g/ha
How it was run: as §2

[4] = application to foliage, application herbicide amount 320 g/ha
[5] = Application herbicide amount 320 g/ha

SMILES | A: Echinochloa oryzicola Vasing. (herbicidal effect grade) [1] | C: Monochoria vaginalis (herbicidal effect grade) (Monochoria vaginalis) | B: Scirpus juncoides (herbicidal effect grade) (Scirpus juncoides) | a: transplanted Oryza sativa (effect on crop grade) [2] | J (Alopecurus myosuroides) | L (Apera spica-venti.) | O (Chenopodium album) | F (Digitaria ciliaris) | H [3] | Q (Galium spurium) | K (Lolium multiflorum Lam.) | G (Setaria viridis) | R (Veronica persica) | also measured
Cc1nnc(NC(=O)c2ccc(C(F)(F)F)n3cnnc23)o1 [1-001] | 3 (Herbicidal ratio of 40% or more and less than 70%) | 2 (Herbicidal ratio of 20% or more and less than 40%) | 2 (Herbicidal ratio of 20% or more and less than 40%) | 0 (Herbicidal ratio of 5% or less (almost no effect)) |  |  |  |  |  |  |  |  |  | M (Abutilon theophrasti) herbicidal effect (Abutilon theophrasti; [4]): 3 (Herbicidal ratio of 40% or more and less than 70%); J (Alopecurus myosuroides) herbicidal effect (Alopecurus myosuroides; [4]): 1 (Herbicidal ratio of 5% or more and less than 20%); L (Apera spica-venti.) herbicidal effect (Apera spica-venti.; [4]): 1 (Herbicidal ratio of 5% or more and less than 20%); I (Avena fatua) herbicidal effect (Avena fatua; [4]): 1 (Herbicidal ratio of 5% or more and less than 20%); O (Chenopodium album) herbicidal effect (Chenopodium album; [4]): 5 (Herbicidal ratio of 90% or more (almost completely withered)); F (Digitaria ciliaris) herbicidal effect (Digitaria ciliaris; [4]): 4 (Herbicidal ratio of 70% or more and less than 90%); H (Echinochloa crus-galli var. crus-galli) herbicidal effect [3, 4]: 4 (Herbicidal ratio of 70% or more and less than 90%); Q (Galium spurium) herbicidal effect (Galium spurium; [4]): 4 (Herbicidal ratio of 70% or more and less than 90%); K (Lolium multiflorum Lam.) herbicidal effect (Lolium multiflorum Lam.; [4]): 1 (Herbicidal ratio of 5% or more and less than 20%); G (Setaria viridis) herbicidal effect (Setaria viridis; [4]): 3 (Herbicidal ratio of 40% or more and less than 70%); R (Veronica persica) herbicidal effect (Veronica persica; [4]): 4 (Herbicidal ratio of 70% or more and less than 90%)
C=CC[S+]([O-])c1nnc2c(C(=O)Nc3nnc(C)o3)ccc(C(F)(F)F)n12 (stereo not shown) [1-074] | 2 (Herbicidal ratio of 20% or more and less than 40%) | 0 (Herbicidal ratio of 5% or less (almost no effect)) | 2 (Herbicidal ratio of 20% or more and less than 40%) | 0 (Herbicidal ratio of 5% or less (almost no effect)) | 0 (Herbicidal ratio of 5% or less (almost no effect)) | 0 (Herbicidal ratio of 5% or less (almost no effect)) | 5 (Herbicidal ratio of 90% or more (almost completely withered)) | 4 (Herbicidal ratio of 70% or more and less than 90%) | 5 (Herbicidal ratio of 90% or more (almost completely withered)) | 3 (Herbicidal ratio of 40% or more and less than 70%) | 0 (Herbicidal ratio of 5% or less (almost no effect)) | 4 (Herbicidal ratio of 70% or more and less than 90%) | 3 (Herbicidal ratio of 40% or more and less than 70%) | I (Avena fatua; [5]): 1 (Herbicidal ratio of 5% or more and less than 20%)
Cc1nnc(NC(=O)c2ccc(C(F)(F)F)n3c(CCS(C)(=O)=O)nnc23)o1 [1-085] | 3 (Herbicidal ratio of 40% or more and less than 70%) | 3 (Herbicidal ratio of 40% or more and less than 70%) | 4 (Herbicidal ratio of 70% or more and less than 90%) | 3 (Herbicidal ratio of 40% or more and less than 70%) | 3 (Herbicidal ratio of 40% or more and less than 70%) | 3 (Herbicidal ratio of 40% or more and less than 70%) | 5 (Herbicidal ratio of 90% or more (almost completely withered)) | 5 (Herbicidal ratio of 90% or more (almost completely withered)) | 5 (Herbicidal ratio of 90% or more (almost completely withered)) | 4 (Herbicidal ratio of 70% or more and less than 90%) | 3 (Herbicidal ratio of 40% or more and less than 70%) | 5 (Herbicidal ratio of 90% or more (almost completely withered)) | 5 (Herbicidal ratio of 90% or more (almost completely withered)) | M (Abutilon theophrasti; [5]): 5 (Herbicidal ratio of 90% or more (almost completely withered))

Source: patent US9708314B2, “Heterocyclic amide compound” (NISSAN CHEMICAL INDUSTRIES, LTD., priority 2013, dated 2017)
